Results taken from PubChem BioAssay AID2060900 (Molecular Pharmacology Branch, DTP, NCI, 2025).

Tested on: 521955-158-R2-J5-PDC complex spheroids, viability
Assay: Anticancer human tumor 521955-158-R2-J5-PDC patient-derived pancreatic carcinoma cell line growth inhibition [RAS]
Conditions: for IC50: curve of first compound; for viability, T/C: stronger effect = lower value
Description: RAS pathway inhibitors in Combinations in Complex Spheroids
A high-throughput screen of multi-cell type tumor spheroids was designed to identify active combinations of RAS pathway inhibitors and targeted small molecules. Complex spheroids include a stromal component modeled by human endothelial cells (HUVEC) and fibroblasts modeled by human mesenchymal stem cells (MSCs). The concentration ranges selected for each drug and investigational agent were based upon clinically achievable concentrations if the clinical Cmax of the agent was known.
Compounds. The drugs and investigational agents: abemaciclib (NSC768073), cobimetinib (NSC768068), divarasib (GDC6063, NSC841802), docetaxel (NSC628503), GDC-1971 (RLY-1971, NSC841576), gemcitabine (NSC613327), inavolisib (NSC800729), ipatasertib (NSC767898), KB-0742 (NSC834161), MRTX-1133 (NSC836407), osimertinib (NSC779217), RMC-4630 (NSC839698), RMC-6236 (NSC851965), RMC-6291 (NSC852671), Ro-3306 (NSC812927), sapanisertib (NSC764658), SN-38 (NSC673596), staurosporine (NSC755774), SY5609 (NSC837396), and tovorafenib (DAY101, NSC766906), were obtained from the National Cancer Institute (NCI) Developmental Therapeutics Program Chemical Repository. The FDA-approved anticancer drug set is available from the NCI Developmental Therapeutics Program. […] The stock solutions were prepared in dimethyl sulfoxide (DMSO, Sigma-Aldrich, St. Louis, MO, cat. D2650) at 800-fold the tested concentration and stored at -70 degrees C prior to their use. All drugs and investigational agents were tested over a range starting from a high concentration at or near the clinical Cmax and decreasing in half-log increments. If the clinical Cmax for an agent had not been determined, the highest concentration tested was 10 microM.
Cell Culture. All cells were maintained in an incubator at 37 degrees C and 5% CO2 with 95% humidity. The PDC lines were cultured according to standard operating procedures established by the NCI PDMR. All PDCs were thawed and cultured in Matrigel-coated flasks prepared with a working solution of 1X Ham's F-12 nutrient mix, without supplementation (Invitrogen, Waltham, MA, cat. 11765054), 100 U/mL penicillin-streptomycin (Invitrogen, cat. 15140122), and 2.5% Matrigel (Corning Inc., Corning, NY, cat. 354248) for the first three passages. The 362531-283-R-J2-PDC and 782815-120-R-J1-PDC lines were cultured in 6C/Colon 1B media, which includes advanced DMEM/F-12 (Thermo Fisher Scientific, cat. 12634028), 10 mM HEPES (Thermo Fisher Scientific, cat. 15630080), 1X GlutaMAX supplement (Thermo Fisher Scientific, cat. 35050061), 0.1 mg/mL primocin (InvivoGen, San Diego, CA, cat. ant-pm-2), 10% defined fetal bovine serum, heat inactivated (HyClone Laboratories Inc., Logan, UT, cat. SH30070.03HI), 50% L-WRN conditioned media (ATCC, cat. CRL-3276), 1.25 mM N-Acetyl-L-cysteine (Sigma-Aldrich, cat. A9165), 10 mM nicotinamide (Sigma-Aldrich, cat. N0636), 1X B-27 supplement (Thermo Fisher Scientific, cat. 17504044), 1X N-2 supplement (Thermo Fisher Scientific, cat. 17502048), 50 ng/mL human EGF (Thermo Fisher Scientific, cat. PHG0311), and 10 microM Y-27632 dihydrochloride (Tocris Bioscience, cat. 1254). The K12877-001-R-J1-PDC line was cultured in 6I media, which includes all 6C/Colon 1B media plus 10 ng/mL human FGF-10 (PeproTech, cat. 100-26), 1 ng/mL human FGF-2 (PeproTech, cat. 100-18B), 1 µM prostaglandin E2 (Tocris Bioscience, cat. 2296), […] hydrocortisone (Sigma-Aldrich, cat. H4001), and […] bovine insulin (Sigma-Aldrich, cat. I6634). The K86415-001-R-J1-PDC line was cultured in 6D media, which includes all 6C/Colon 1B media components minus the L-WRN conditioned media. The 485176-168-R4-J1-PDC was cultured in PANC media, which includes all 6C/Colon 1B media plus 100 ng/mL human FGF-10 (PeproTech, cat. 100-26), 500 nM SB-431542 (Selleckchem, cat. S1067), and 10 nM gastrin (Tocris Bioscience, cat. 3006). […]
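Note: compound exposure lasted seven days before the viability read.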
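Throughout, for viability, T/C: spheroids also contain HUVEC endothelial cells and mesenchymal stem cells as stroma.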

In the case of `CCc1c2c(nc3ccc(O)cc13)-c1cc3c(c(=O)n1C2)COC(=O)[C@]3(O)CC` + CCn1c(-c2cc(N3CCN(C)CC3)cnc2C(C)OC)c2c3cc(ccc31)-c1csc(n1)CC(NC(=O)C1CC1C)C(=O)N1CCCC(N1)C(=O)OCC(C)(C)C2, the IC50 (second compound 0.000949 µM) is reported as less than 0.949 nM, the IC50 (second compound 0.003 µM) is reported as less than 0.949 nM and the IC50 (second compound 0.00949 µM) is reported as less than 0.949 nM. For the same compound, the IC50 (second compound 0.03 µM) was less than 0.949 nM, the IC50 (second compound 0.0949 µM) was less than 0.949 nM and the IC50 (second compound 0.3 µM) was less than 0.949 nM. It also gave a viability, T/C (second compound 0.000949 µM, first compound 0.000949 µM) of 30.3%, a viability, T/C (second compound 0.000949 µM, first compound 0.003 µM) of 23.1% and a viability, T/C (second compound 0.000949 µM, first compound 0.00949 µM) of 20.6%. For the same compound, the viability, T/C (second compound 0.000949 µM, first compound 0.03 µM) was 6.46%, the viability, T/C (second compound 0.000949 µM, first compound 0.0949 µM) was 5.57% and the viability, T/C (second compound 0.000949 µM, first compound 0.3 µM) was 4.03%. It also gave a viability, T/C (second compound 0.003 µM, first compound 0.000949 µM) of 30.4%, a viability, T/C (second compound 0.003 µM, first compound 0.003 µM) of 26.8% and a viability, T/C (second compound 0.003 µM, first compound 0.00949 µM) of 19.9%. It also gave a viability, T/C (second compound 0.003 µM, first compound 0.03 µM) of 10.5%, a viability, T/C (second compound 0.003 µM, first compound 0.0949 µM) of 8.02% and a viability, T/C (second compound 0.003 µM, first compound 0.3 µM) of 5.19%. The viability, T/C (second compound 0.00949 µM, first compound 0.000949 µM) was 26.2%, the viability, T/C (second compound 0.00949 µM, first compound 0.003 µM) was 26% and the viability, T/C (second compound 0.00949 µM, first compound 0.00949 µM) was 19.6%. It also gave a viability, T/C (second compound 0.00949 µM, first compound 0.03 µM) of 9.8%, a viability, T/C (second compound 0.00949 µM, first compound 0.0949 µM) of 10.9% and a viability, T/C (second compound 0.00949 µM, first compound 0.3 µM) of 5.95%. It also gave a viability, T/C (second compound 0.03 µM, first compound 0.000949 µM) of 19.4%, a viability, T/C (second compound 0.03 µM, first compound 0.003 µM) of 21.2% and a viability, T/C (second compound 0.03 µM, first compound 0.00949 µM) of 13.2%. It also gave a viability, T/C (second compound 0.03 µM, first compound 0.03 µM) of 8.77%, a viability, T/C (second compound 0.03 µM, first compound 0.0949 µM) of 10.2% and a viability, T/C (second compound 0.03 µM, first compound 0.3 µM) of 5.37%. For the same compound, the viability, T/C (second compound 0.0949 µM, first compound 0.000949 µM) was 11.3%, the viability, T/C (second compound 0.0949 µM, first compound 0.003 µM) was 14.1% and the viability, T/C (second compound 0.0949 µM, first compound 0.00949 µM) was 8.2%. It also gave a viability, T/C (second compound 0.0949 µM, first compound 0.03 µM) of 6.36%, a viability, T/C (second compound 0.0949 µM, first compound 0.0949 µM) of 5.92% and a viability, T/C (second compound 0.0949 µM, first compound 0.3 µM) of 2.8%. The viability, T/C (second compound 0.3 µM, first compound 0.000949 µM) was 8.86%, the viability, T/C (second compound 0.3 µM, first compound 0.003 µM) was 10.8% and the viability, T/C (second compound 0.3 µM, first compound 0.00949 µM) was 8.12%. For the same compound, the viability, T/C (second compound 0.3 µM, first compound 0.03 µM) was 5.86%, the viability, T/C (second compound 0.3 µM, first compound 0.0949 µM) was 6.11% and the viability, T/C (second compound 0.3 µM, first compound 0.3 µM) was 2.57%.
